Laboratory results: paper PMC11678425, “(-)-Syringaresinol Exerts an Antidepressant-like Activity in Mice by Noncompetitive Inhibition of the Serotonin Transporter” (Pharmaceuticals, 2024)

What was measured:
[1] = biological target: T1, hSERT Q111N (Homo sapiens, UniProt P31645, Q111N); assay: APP^+ uptake, hSERT Q111N; format: cell-based; settings: S2 site mutant, read-out: SYR IC50 for Transport
T1 construct: forward and reverse primers were used to amplify a full-length hSERT; expressed in transfected cells; host or cells: HeLa cells, transient, pcDNA3.1
T1 sequence (P31645 whole entry Q111N): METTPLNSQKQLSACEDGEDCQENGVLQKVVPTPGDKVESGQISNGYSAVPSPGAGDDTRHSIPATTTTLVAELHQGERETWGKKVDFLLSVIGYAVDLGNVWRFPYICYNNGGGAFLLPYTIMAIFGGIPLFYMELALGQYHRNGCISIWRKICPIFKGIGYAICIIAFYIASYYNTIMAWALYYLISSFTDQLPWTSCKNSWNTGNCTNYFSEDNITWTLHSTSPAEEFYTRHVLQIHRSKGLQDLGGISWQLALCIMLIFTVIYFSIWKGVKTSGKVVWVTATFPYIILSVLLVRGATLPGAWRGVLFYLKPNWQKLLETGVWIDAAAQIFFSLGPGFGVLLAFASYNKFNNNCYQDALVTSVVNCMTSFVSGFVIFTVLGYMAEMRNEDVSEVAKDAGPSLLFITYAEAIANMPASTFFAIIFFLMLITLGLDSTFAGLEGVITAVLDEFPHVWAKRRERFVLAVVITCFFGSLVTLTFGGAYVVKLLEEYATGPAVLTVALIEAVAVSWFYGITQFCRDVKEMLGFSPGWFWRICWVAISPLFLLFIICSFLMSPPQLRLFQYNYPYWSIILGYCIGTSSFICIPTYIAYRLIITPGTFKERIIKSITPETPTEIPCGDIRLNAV

[2] = biological target: T2, hSERT I327A (Homo sapiens, UniProt P31645, I327A); assay: APP^+ uptake, hSERT I327A; format: cell-based; settings: S2 site mutant, read-out: SYR IC50 for Transport
T2 construct: forward and reverse primers were used to amplify a full-length hSERT; expressed in transfected cells; host or cells: HeLa cells, transient, pcDNA3.1
T2 sequence (P31645 whole entry I327A): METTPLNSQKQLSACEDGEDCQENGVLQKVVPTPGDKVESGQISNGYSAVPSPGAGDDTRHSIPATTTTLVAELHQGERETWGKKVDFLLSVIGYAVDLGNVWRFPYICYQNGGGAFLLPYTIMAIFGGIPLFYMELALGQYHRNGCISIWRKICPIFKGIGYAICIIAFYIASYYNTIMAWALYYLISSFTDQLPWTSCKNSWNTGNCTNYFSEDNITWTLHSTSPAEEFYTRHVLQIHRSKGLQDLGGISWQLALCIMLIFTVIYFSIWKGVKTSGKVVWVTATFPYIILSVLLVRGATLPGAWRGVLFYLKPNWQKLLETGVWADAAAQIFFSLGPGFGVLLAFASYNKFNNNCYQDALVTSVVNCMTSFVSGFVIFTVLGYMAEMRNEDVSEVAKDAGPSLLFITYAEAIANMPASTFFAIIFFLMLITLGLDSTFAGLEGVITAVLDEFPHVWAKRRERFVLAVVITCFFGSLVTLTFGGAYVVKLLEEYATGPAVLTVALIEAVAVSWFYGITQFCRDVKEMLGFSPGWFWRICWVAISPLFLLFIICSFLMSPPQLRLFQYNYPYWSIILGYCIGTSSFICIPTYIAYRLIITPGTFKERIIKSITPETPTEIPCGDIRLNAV

[3] = biological target: T3, hSERT E493N (Homo sapiens, UniProt P31645, E493N); assay: APP^+ uptake, hSERT E493N; format: cell-based; settings: S2 site mutant, read-out: SYR IC50 for Transport
T3 construct: forward and reverse primers were used to amplify a full-length hSERT; expressed in transfected cells; host or cells: HeLa cells, transient, pcDNA3.1
T3 sequence (P31645 whole entry E493N): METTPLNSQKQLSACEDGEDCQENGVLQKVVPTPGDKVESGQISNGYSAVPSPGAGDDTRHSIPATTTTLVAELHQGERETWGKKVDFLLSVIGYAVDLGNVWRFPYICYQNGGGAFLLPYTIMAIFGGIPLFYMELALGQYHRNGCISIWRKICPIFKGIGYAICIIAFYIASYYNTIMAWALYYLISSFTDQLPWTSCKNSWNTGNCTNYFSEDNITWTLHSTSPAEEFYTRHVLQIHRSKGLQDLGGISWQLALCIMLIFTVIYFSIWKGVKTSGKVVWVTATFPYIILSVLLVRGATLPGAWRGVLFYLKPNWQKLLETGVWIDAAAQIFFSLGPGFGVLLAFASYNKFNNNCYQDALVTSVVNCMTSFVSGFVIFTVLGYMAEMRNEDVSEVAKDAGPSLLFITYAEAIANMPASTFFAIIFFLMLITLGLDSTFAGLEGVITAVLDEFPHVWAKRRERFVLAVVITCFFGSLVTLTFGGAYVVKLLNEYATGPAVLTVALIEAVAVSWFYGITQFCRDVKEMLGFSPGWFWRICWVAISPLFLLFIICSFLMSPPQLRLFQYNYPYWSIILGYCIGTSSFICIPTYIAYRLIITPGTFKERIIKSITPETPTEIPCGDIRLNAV

[4] = biological target: T4, hSERT G498T (Homo sapiens, UniProt P31645, G498T); assay: APP^+ uptake, hSERT G498T; format: cell-based; settings: S2 site mutant, read-out: SYR IC50 for Transport
T4 construct: forward and reverse primers were used to amplify a full-length hSERT; expressed in transfected cells; host or cells: HeLa cells, transient, pcDNA3.1

[5] = biological target: T5, hSERT P561G (Homo sapiens, UniProt P31645, P561G); assay: APP^+ uptake, hSERT P561G; format: cell-based; settings: S2 site mutant, read-out: SYR IC50 for Transport
T5 construct: forward and reverse primers were used to amplify a full-length hSERT; expressed in transfected cells; host or cells: HeLa
T5 sequence (P31645 whole entry P561G): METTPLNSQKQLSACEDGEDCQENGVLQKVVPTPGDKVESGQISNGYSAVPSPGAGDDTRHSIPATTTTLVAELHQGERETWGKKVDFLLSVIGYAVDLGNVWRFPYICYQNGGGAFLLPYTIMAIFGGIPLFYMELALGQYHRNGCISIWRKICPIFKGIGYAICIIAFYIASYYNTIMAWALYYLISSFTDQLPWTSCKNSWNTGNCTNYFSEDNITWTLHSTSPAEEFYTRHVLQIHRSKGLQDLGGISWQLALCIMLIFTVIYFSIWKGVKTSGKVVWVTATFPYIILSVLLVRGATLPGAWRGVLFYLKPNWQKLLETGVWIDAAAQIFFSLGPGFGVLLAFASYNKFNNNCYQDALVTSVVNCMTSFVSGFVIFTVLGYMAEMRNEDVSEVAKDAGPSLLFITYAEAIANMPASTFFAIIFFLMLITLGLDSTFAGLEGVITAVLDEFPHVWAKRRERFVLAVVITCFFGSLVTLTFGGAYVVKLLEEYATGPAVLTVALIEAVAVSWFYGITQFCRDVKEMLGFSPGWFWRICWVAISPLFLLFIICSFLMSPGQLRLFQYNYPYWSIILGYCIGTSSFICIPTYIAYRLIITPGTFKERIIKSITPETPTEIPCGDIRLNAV

[6] = biological target: T6, hSERT R564A (Homo sapiens, UniProt P31645, R564A); assay: APP^+ uptake, hSERT R564A; format: cell-based; settings: S2 site mutant, read-out: SYR IC50 for Transport
T6 construct: forward and reverse primers were used to amplify a full-length hSERT; expressed in transfected cells; host or cells: HeLa
T6 sequence (P31645 whole entry R564A): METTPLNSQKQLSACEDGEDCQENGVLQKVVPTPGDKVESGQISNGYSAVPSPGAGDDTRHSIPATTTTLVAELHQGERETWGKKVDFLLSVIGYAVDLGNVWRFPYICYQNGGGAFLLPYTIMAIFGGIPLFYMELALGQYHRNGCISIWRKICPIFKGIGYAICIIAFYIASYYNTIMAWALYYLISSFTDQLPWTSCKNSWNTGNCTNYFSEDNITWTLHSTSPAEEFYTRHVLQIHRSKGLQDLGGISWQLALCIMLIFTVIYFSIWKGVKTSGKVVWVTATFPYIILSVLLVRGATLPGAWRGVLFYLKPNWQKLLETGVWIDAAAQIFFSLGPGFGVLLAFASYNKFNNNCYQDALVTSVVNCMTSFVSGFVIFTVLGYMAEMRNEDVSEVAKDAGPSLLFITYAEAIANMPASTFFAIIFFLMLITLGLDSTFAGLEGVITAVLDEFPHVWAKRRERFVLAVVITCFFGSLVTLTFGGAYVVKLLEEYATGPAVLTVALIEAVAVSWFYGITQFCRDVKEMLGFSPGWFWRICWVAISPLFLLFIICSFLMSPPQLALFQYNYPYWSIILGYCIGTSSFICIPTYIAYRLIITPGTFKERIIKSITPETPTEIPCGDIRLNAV

[7] = biological target: T7, hSERT Y579A (Homo sapiens, UniProt P31645, Y579A); assay: APP^+ uptake, hSERT Y579A; format: cell-based; settings: S2 site mutant, read-out: SYR IC50 for Transport
T7 construct: forward and reverse primers were used to amplify a full-length hSERT; expressed in transfected cells; host or cells: HeLa

[8] = biological target: T8, hSERT S438T (Homo sapiens, UniProt P31645, S438T); assay: APP^+ uptake, hSERT S438T; format: cell-based; settings: S1 site mutant, read-out: SYR IC50 for Transport
T8 construct: forward and reverse primers were used to amplify a full-length hSERT; expressed in transfected cells; host or cells: HeLa
T8 sequence (P31645 whole entry S438T): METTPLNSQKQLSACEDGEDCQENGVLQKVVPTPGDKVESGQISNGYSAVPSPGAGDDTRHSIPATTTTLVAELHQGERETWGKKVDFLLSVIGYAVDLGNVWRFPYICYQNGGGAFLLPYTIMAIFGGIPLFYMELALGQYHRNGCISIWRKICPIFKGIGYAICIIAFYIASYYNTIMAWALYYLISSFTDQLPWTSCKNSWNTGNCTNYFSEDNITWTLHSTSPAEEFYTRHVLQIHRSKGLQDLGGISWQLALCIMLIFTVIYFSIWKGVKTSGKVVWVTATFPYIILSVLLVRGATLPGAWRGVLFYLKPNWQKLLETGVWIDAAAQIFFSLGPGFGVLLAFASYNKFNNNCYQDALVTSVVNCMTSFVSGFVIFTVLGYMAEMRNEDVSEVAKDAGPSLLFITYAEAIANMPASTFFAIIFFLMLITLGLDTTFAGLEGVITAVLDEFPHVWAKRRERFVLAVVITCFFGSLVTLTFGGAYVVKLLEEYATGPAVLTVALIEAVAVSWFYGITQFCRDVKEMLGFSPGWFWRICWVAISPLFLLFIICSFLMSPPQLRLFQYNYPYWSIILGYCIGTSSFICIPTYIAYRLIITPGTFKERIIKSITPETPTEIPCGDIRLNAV
Procedure: HeLa cells were cultured in Dulbecco’s Modified Eagle’s Medium supplemented with 10% fetal bovine serum, 100 units/mL penicillin, and 100 μg/mL streptomycin at 37 °C in a humidified 5% CO2 incubator. Cells grown at ~70% confluence in a 6 cm culture dish were transfected with hSERT cDNA in pcDNA3.1 by lipofectamine 2000. Transfected cells were incubated for 12 h at 37 °C with 5% CO2 and then transferred into 96-well plates. After being grown for an additional 12–16 h, the cells were then assayed for APP^+ uptake or ASP^+ binding.
Measurement of transport or ligand binding activity of SERT was performed by using its fluorescent substrate (APP^+) or ligand (ASP^+), respectively. The cells transiently expressing WT or mutants of hSERT were applied for various treatments. Briefly, the cells were washed twice with 100 μL KRH buffer containing 20 mM HEPES (Neofroxx, Einhausen, Germany), pH 7.4, 120 mM NaCl, 1.3 mM KCl, 2.2 mM CaCl2, 1.2 mM MgSO4, and 0.1% (w/v) glucose. APP^+ uptake was measured by adding 100 μL KRH buffer containing 2 μM APP^+ and incubating for 5 min at 22 °C. Excess APP^+ was then removed by 3× rapid washing with 100 μL KRH buffer each time. The extent of APP^+ accumulated in the cells was determined by fluorescence spectrometry with an Infinite 200 Pro microplate reader (Tecan, Männedorf, Switzerland). […]

[9] = biological target: T1, hSERT Q111N; assay: ASP^+ binding, hSERT Q111N; settings: S2 site mutant, read-out: SYR IC50 for Binding
[10] = biological target: T9, hSERT D328A (Homo sapiens, UniProt P31645, D328A); assay: ASP^+ binding, hSERT D328A; settings: S2 site mutant, read-out: SYR IC50 for Binding
T9 construct: forward and reverse primers were used to amplify a full-length hSERT; expressed in transfected cells; host or cells: HeLa cells, transient, pcDNA3.1
T9 sequence (P31645 whole entry D328A): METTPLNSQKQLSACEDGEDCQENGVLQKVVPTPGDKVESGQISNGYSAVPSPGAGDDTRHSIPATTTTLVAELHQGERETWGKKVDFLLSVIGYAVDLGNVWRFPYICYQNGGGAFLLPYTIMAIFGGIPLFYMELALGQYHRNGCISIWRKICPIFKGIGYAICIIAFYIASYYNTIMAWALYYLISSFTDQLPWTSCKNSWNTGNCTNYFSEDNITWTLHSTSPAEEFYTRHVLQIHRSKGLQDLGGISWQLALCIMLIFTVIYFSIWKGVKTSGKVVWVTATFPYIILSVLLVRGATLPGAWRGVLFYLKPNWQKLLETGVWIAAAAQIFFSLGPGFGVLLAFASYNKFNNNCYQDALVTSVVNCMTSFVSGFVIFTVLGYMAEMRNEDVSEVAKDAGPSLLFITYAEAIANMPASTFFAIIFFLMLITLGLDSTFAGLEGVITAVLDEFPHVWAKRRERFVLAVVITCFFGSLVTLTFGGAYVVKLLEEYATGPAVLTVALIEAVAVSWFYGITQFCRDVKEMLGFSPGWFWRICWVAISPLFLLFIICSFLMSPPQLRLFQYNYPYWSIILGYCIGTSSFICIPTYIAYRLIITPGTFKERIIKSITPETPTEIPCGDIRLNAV

[11] = biological target: T3, hSERT E493N; assay: ASP^+ binding, hSERT E493N; settings: S2 site mutant, read-out: SYR IC50 for Binding
[12] = biological target: T5, hSERT P561G; assay: ASP^+ binding, hSERT P561G; settings: S2 site mutant, read-out: SYR IC50 for Binding
[13] = biological target: T10, hSERT Q562N (Homo sapiens, UniProt P31645, Q562N); assay: ASP^+ binding, hSERT Q562N; settings: S2 site mutant, read-out: SYR IC50 for Binding
T10 construct: forward and reverse primers were used to amplify a full-length hSERT; expressed in transfected cells; host or cells: HeLa
T10 sequence (P31645 whole entry Q562N): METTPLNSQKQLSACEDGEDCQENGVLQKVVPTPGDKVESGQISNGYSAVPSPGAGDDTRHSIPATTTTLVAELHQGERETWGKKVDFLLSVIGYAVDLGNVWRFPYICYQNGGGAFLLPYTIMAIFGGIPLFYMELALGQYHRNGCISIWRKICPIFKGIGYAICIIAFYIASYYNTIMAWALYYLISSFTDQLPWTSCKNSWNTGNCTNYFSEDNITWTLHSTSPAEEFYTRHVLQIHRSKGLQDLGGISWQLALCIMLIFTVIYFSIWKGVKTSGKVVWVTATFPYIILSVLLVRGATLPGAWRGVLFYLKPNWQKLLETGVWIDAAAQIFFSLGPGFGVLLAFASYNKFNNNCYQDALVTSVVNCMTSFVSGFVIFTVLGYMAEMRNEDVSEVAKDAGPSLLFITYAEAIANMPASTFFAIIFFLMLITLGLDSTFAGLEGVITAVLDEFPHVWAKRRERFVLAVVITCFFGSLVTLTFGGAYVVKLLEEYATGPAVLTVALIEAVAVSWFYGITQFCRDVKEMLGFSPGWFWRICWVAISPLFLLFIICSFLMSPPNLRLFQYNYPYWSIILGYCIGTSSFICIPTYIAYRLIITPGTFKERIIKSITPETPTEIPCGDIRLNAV

[14] = test system: SERT Y107C/C109A; assay: Cysteine accessibility, extracellular pathway: MTSET reactivity with Y107C/C109A; format: cell-based; settings: 10 μM ligand, compared with the control (MTSET alone)
[15] = test system: BDNF, PSD-95, GluA1, and vGluT1; assay: Immunoblot of synaptic proteins in mPFC of CUMS mice; format: in vivo, mouse; settings: SYR administration
Procedure: Figure 7 SYR effects on the expression of c-Fos and synaptic proteins in mPFC. (A) Representative immunohistochemical images of c-Fos expression in mPFC under the indicated treatments. Immunohistochemistry of c-Fos was performed with mPFC slices as described in Section 4. The slices were re-probed with anti-DAPI antibody. Immunofluorescence images for c-Fos (green) and DAPI (blue) were acquired by confocal microscopy. (B) Quantitative analysis for c-Fos expression in mPFC with various treatments. Protein expression is expressed as a percentage of c-Fos fluorescence measured in the control group. Bars represent the mean ± SEM (n = 4). * p < 0.05, ** p < 0.01 compared with the control or CUMS group by one-way ANOVA followed by post hoc tests, respectively. […] (D–G) Quantification of the expression of the synaptic proteins BDNF (D), PSD-95 (E), GluA1 (F), and vGluT1 (G). The expression level is expressed as a percentage of the integrated density obtained from the control group. […]
Synaptic proteins were extracted from mPFC or hippocampus tissues using RIPA lysis buffer, respectively. Expression of the indicated proteins under various treatments was then analyzed by immunoblotting, as previously reported. […] Quantification of immunoreactive protein bands was performed using Image J v1.53u, and GAPDH was used as an internal reference to normalize expression levels of those proteins, respectively.

[16] = test system: CUMS mice; settings: all tested dosages, i.p.

Q: Which results are given for `COc1cc([C@@H]2OC[C@@H]3[C@H]2CO[C@H]3c2cc(OC)c(O)c(OC)c2)cc(OC)c1O` [SYR, (-)-syringaresinol]?
A: IC50 [1]: 17.7 ± 0.45 µM; IC50 [2]: 19.5 ± 1.02 µM; IC50 [3]: 9.16 ± 0.34 µM; IC50 [4]: 40.5 ± 0.54 µM; IC50 [5]: 46.3 ± 0.94 µM; IC50 [6]: 14.6 ± 1.59 µM; IC50 [7]: 16.3 ± 1.06 µM; IC50 [8]: 0.91 ± 0.02 µM; IC50 [9]: 115 ± 2.47 µM; IC50 [10]: 39.2 ± 0.78 µM; IC50 [11]: 13.5 ± 1.3 µM; IC50 [12]: 131 ± 5.72 µM; IC50 [13]: 99.9 ± 2.04 µM; rate constant of MTSET reactivity with Y107C/C109A [14]: markedly increased; CUMS-induced reduction in expression of synaptic proteins BDNF, PSD-95, GluA1, vGluT1 in mPFC [15]: attenuated; fatality rate [16]: zero fatality rate
